Data as given in US11311537B2, “Diagnosis and treatment of lymphoproliferative disorders with PARP inhibitors” (UNIVERSITY OF MIAMI, priority 2016, dated 2022).
Entries after “also recorded” stand apart in the source; their conditions may differ.

How the values were obtained:
[1] = test system: DLBCL LMO2+ cell lines (OCI-Ly8, OCI-Ly19, DOHH2); test: Colony formation assay, olaparib in combination with genotoxic agents (Combination Index); type: cell-based, human
Description: Only colonies with 50 or more cells where counted. *P<0.001, Two-way ANOVA. […] CI, Combination Index (CI<1 indicates a synergistic effect).

[2] = test system: OCI-Ly19 xenografts (LMO2 positive); test: DLBCL subcutaneous xenograft model; type: in vivo, NOD/SCID mice; conditions: for lifespan (survival): olaparib 50 mg/kg IP, 21 days, vs control group
Description: (§1) Subcutaneous xenograft tumors were generated by human DLBCL cells (OCI-Ly19 or OCI-Ly1) injected into NOD/SCID (5 million cells/mouse). Treatment started when tumor reached 100 mm^3 (˜10 days post-injection). FIG. 5A, Kaplan-Meier plots: OCI-Ly19 (n=per group: n=8 CTL, n=9 olaparib, n=5 RCHOP, n=5 RCHOP+olaparib) and OCI-Ly1 (n=5 per group). Mice were euthanized when the tumor volume reached 1500 mm^3 in accordance with the institutional guidelines. Statistical analysis was done by the log rank (Mantel-Cox) test. FIG. 5B, Ex vivo analyses of the tumors. The xenografts were generated as described above. Shown are representative FACS analyses of the OCI-Ly19 tumor cells exposed or not to olaparib during 3 days and stained with Annexin V and propidium iodide (PI). FIG. 5C, Tunnel assays in OCI-Ly19 tumor samples exposed or not to olaparib.
(§2) All mice studies were conducted after approval of IACUC protocol. For DLBCL xenograft model, five-week-old female NOD/SCID mice (Harlan's) were subcutaneously injected with DLBCL cell line OCI-LY19 (5×10^6 cells/mouse) into the right flank. Once tumors reached 100 mm^3, mice were subdivided into two experimental groups (n=5-7/group). One group received buffer solution (1×PBS) and the other group received Olaparib (50 mg/kg; LC Labs, MA) for 21 consecutive days via IP injection. In separate experiments, one group received buffer solution (1×PBS), second group received Olaparib (50 mg/kg; LC Labs, MA), third group RCHOP (Rituximab 20 mg/kg, i.v. for a single dose on D1; cyclophosphamide, 40 mg/kg, D1; doxorubicin, 3.3 mg/kg, i.v. D1; vincristine, 0.5 mg/kg, i.v. D1; and prednisone, 0.2 mg/kg, every day by oral gavage on D1-5 and fourth group combination of Olaparib with RCHOP. Tumor bearing mice were observed every two days for tumor volume and weight loss was measured using standard calipers. Once the tumor volume exceeded 1500 mm^3 or the mouse […] dropped more than 10% total body weight, the mice were sacrificed.

[3] = test system: OCI-Ly1 xenografts (LMO2 negative); test: DLBCL subcutaneous xenograft model; type: in vivo, NOD/SCID mice; conditions: olaparib 50 mg/kg
Description: as §1, §2

[4] = test system: DLBCL LMO2- and control cell lines (OCI-Ly1, U2932, IMR90, HCC1187); test: MTS cell proliferation assay; type: cell-based, human
Protocol: (§3) Proliferation and cell cycle studies: Cell proliferation was studied using cell titer 96 Aqueous Non-radioactive cell proliferation (MTS) kit from Promega. This assay was performed following manufacturer's instructions. For cell cycle studies, cells were fixed with 70% cold ethanol and incubated overnight at 4° C. Next, cells were washed once with 1×PBS and incubated with 50 μg/ml Propidium Iodide (Invitrogen) and RNAse (0.1 mg/ml) for 30 min. Cells were analyzed using a flow cytometer (BD FACS Canto-II analyzer).

[5] = test system: DLBCL LMO2+ cell lines (OCI-Ly8, OCI-Ly19 and DOHH2); test: MTS cell proliferation assay; type: cell-based, human; conditions: OCI-Ly8, OCI-Ly19, DOHH2 compared with IMR90, HCC1187, OCI-Ly1, U2932; p<0.001 by ANOVA
Protocol: as §3

DLBCL LMO2+ cell lines [6] = test: Cell death analysis by Annexin V / propidium iodide flow cytometry; type: cell-based, human; conditions: 4 days, 1 μM olaparib
Description: FIG. 4A, MTS assay to evaluate effect of olaparib on the proliferation of human lymphoblasts (HCC1187), human primary lung fibroblasts (IMR90) and human lymphomas cells (LMO2 negative (U2932, OCI-Ly1) and LMO2 positive (DOHH2, OCI-Ly8, OCI-Ly19)). *P<0.0001. Two-way ANOVA. FIG. 4B, quantification of colony formation assays in OCI-Ly1, DOHH2, VaL and Val (LMO2 KO)-LMO2-null Val cells exposed to different concentrations of olaparib. Only colonies with 50 or more cells where counted. *P<0.001, Two-way ANOVA. FIG. 4C, quantification of the flow cytometer results for Propidium Iodide (PI) and Annexin V staining after 4 days in presence or absence of 1 μM olaparib for cell death analysis in the indicated lymphoma cell lines. FIG. 4D, representative pictures of colony formation assay quantified in FIG. 4B using DOHH2 cells. […] CI, Combination Index (CI<1 indicates a synergistic effect). FIG. 4F, quantification of γH2AX DNA damage foci in OCI-Ly8 cells exposed to or not exposed to olaparib during 24 hs.

OCI-Ly8 cells = test: gammaH2AX DNA damage foci (immunofluorescence); type: cell-based, human; conditions: OCI-Ly8, 24 hs exposure
Protocol: Immunofluorescence studies: For studying DNA break repair, DNA double-strand breaks were induced either by exposing the cells to ionization radiation (IR). DLBCL cell lines were exposed to gamma ray source at 10 Gy (cobalt 60 irradiator) and U2OS cells were exposed to 4 Gy. Alternatively double-stranded breaks were induced by adding Doxorubicin (12.5 ng/ml) to the culture during 16-20 hs. Cells were attached on a glass slide pre-coated with poly-lysine for 30 min. Cells were fixed with 4% Para-formaldehyde in 1×PBS for 15 min at room temperature. After fixing, cells were permeabilized using blocking solution (1 mg/ml BSA, 5% Goat/Horse normal serum, 0.5% TritonX-100) for 30 min. Cells were incubated with primary antibodies diluted in blocking solution for 1 h. Cells were washed three times with 1×PBS 5 min each. After washing, cells were incubated with secondary antibodies diluted in blocking solution, Alexa Fluor 488 or Alexa Fluor 594 for 30 min. Cells were then washed with 1×PBS twice for 5 min each wash. Nuclear DNA was visualized via DAPI (1 μg/ml) (Sigma Aldrich) staining for 15 min. Finally, cells were washed with 1×PBS for 15 min to remove excess stain and mounted with Prolong Gold antifade reagent (Invitrogen). Images were acquired using a Leica DMI6000 B Fluorescence microscope.

[7] = breast cancer treated patients; cited from earlier work
[8] = test system: MOLT16 (LMO2-positive) versus Jurkat (LMO2-negative); test: Annexin V cell death analysis in T-ALL cell lines; type: cell-based, human; conditions: LMO2 expressing versus LMO2 negative T-ALL cell line, 4 days
Description: (§4) FIG. 7A, quantification of cell proliferation via MTS assay in MOLT16 (LMO2+) and Jurkat (LMO2−) T cell lymphoblastic leukemia cell lines exposed to different concentrations of olaparib during 4 days. *P<0.001, Two-way ANOVA. FIG. 7B, quantification of the flow cytometer results for Annexin V staining after 4 days in presence or absence of indicated concentrations of olaparib for cell death analysis in the indicated T cell lymphoblastic leukemia cell lines.

OCI-19 = test: MTS cell proliferation assay, olaparib IC50; type: cell-based; conditions: Homo sapiens; OCI-19, DLBCL LMO2+
Protocol: as §3

OCI-Ly8 = test: MTS cell proliferation assay, olaparib IC50; type: cell-based; conditions: Homo sapiens; OCI-Ly8, DLBCL LMO2+
Protocol: as §3

DOHH2 = test: MTS cell proliferation assay, olaparib IC50; type: cell-based; conditions: Homo sapiens, DOHH-2; DOHH2, DLBCL LMO2+
Protocol: as §3

DLBCL LMO2+ cell lines [9] = test: Colony-forming assay; type: cell-based, human; conditions: olaparib pretreatment 48 h, colonies after 14 days
Protocol: Colony-forming assay: Clonogenic assays were performed as described elsewhere (McDonnell, Oncogene, 31(32), 3733-3740 (2012)). In total, 500 cells were pretreated with indicated olaparib concentration (0; 1; 10; 100; 1,000; and 10,000 nM) for 48 h and seeded in triplicate in MethoCult conditioned media (Stem Cell Technologies, Vancouver, Canada). After 14 days, macroscopic colonies were stained with iodonitrotetrazolium chloride (Sigma Aldrich) overnight and counted. Only colonies with 50 or more cells were counted.

[10] = test system: MOLT16 (LMO2-positive) versus Jurkat (LMO2-negative); test: MTS cell proliferation assay in T-ALL cell lines; type: cell-based, human; conditions: LMO2 expressing versus LMO2 negative T-ALL cell line, 4 days, p<0.001 by ANOVA
Description: as §4, §3

[11] = test system: primary human DLBCL tumors expressing or not LMO2; test: MTS assay in primary human tumor samples; type: cell-based; conditions: LMO2- and reactive follicular hyperplasia
Description: FIGS. 6A-6C: Olaparib and doxorubicin show synergy to kill primary DLBCL cells expressing LMO2. FIG. 6A, MTS assay to evaluate the effect of exposure to different concentrations of olaparib alone or in combination with doxorubicin in primary human DLBCL tumors expressing or not LMO2 and a Reactive follicular hyperplasia (LMO2−). CI, Combination Index (CI<1 indicates a synergistic effect). FIG. 6B, Western blots showing LMO2 level in human DLBCL cell lines (OCI-Ly1 (LMO2 negative), OCI-Ly19 (LMO2 positive), human primary lymphoblasts (HCC1187)), and primary human tumors (LMO2+, DLBCL expressing LMO2, LMO2−, DLBCL not expressing LMO2) and RFH-Reactive follicular hyperplasia not expressing LMO2. GAPDH was used as loading control. FIG. 6C, immunohistochemistry (IHC) for LMO2 in primary human DLBCL samples used for FIGS. 6A and 6B. H&E, hematoxylin and eosin staining.
Primary tumors were obtained from DLBCL or no DLBCL patients following appropriate consent of the IRB approved protocol and single cell suspension generated using standard techniques.
as §3

N.N.O=C([O-])C1(C(=O)[O-])CCC1.[Pt+2] [carboplatin]
synergy with olaparib (carboplatin) ([1]; olaparib + carboplatin, OCI-Ly19 and DOHH2): showed synergy

O=C(c1cc(Cc2n[nH]c(=O)c3ccccc23)ccc1F)N1CCN(C(=O)C2CC2)CC1 [olaparib]
cell death in tumors (Annexin V, PI, Tunnel assay) ([2]; OCI-Ly19 tumors, ex vivo analysis): increase in cell death | lifespan (survival) ([2]; OCI-Ly19 xenografts): increased the lifespan | lifespan (survival) ([2]; OCI-Ly19 xenografts, listed as Olaparib): prolongs survival | lifespan in combination with RCHOP ([2]; OCI-Ly19 xenografts, olaparib + RCHOP vs RCHOP): increased the life-span | tumor growth in vivo ([2]; human DLBCL cells expressing LMO2, murine xenograft): slows growth | lifespan (survival) [3]: did not produce any effect | effect on DLBCL LMO2- and control cell lines [4]: no or minimal effect | cell proliferation [5]: decreases proliferation; also recorded: statistically significant (p<0.001 by ANOVA) decrease in cell proliferation | cell death via apoptosis (DLBCL LMO2+ cell lines [6]): induces cell apoptosis; also recorded: increased cell death via apoptosis | DNA damage (γH2AX foci) (OCI-Ly8 cells): increased DNA damage | concentration observed in the blood [7]: 2 µM | cell death [8]: induces cell apoptosis | cell death ([8]; listed as Olaparib): increase in cell death | IC50 (OCI-19): 0.13 µM | IC50 (OCI-Ly8): 0.8 µM | IC50 (DOHH2): 0.12 µM | colony formation (DLBCL LMO2+ cell lines [9]): pronounced olaparib-mediated decrease in colony formation | synergy with doxorubicin ([1]; olaparib + doxorubicin, three DLBCL LMO2+ cell lines, preliminary studies): synergistic | cell proliferation [10]: decreases proliferation | cell proliferation ([10]; listed as Olaparib): statistically significant (p<0.001 by ANOVA) decrease in cell proliferation | proliferation capacity of primary tumor samples, olaparib alone [11]: only affected the proliferation capacity of the DLBCL sample expressing LMO2 protein | proliferation capacity of primary tumor samples, olaparib in combination with doxorubicin [11]: only affected the proliferation capacity of the DLBCL sample expressing LMO2 protein | proliferation capacity of primary tumor samples, olaparib in combination with doxorubicin ([11]; listed as Olaparib): show synergy
